From patent publication US9302999B2, “Substituted triazoles as herbicides” (E. I. DU PONT DE NEMOURS AND COMPANY, priority 2012, dated 2016)

Assays:
Assay type in all cases: in vivo
rice (Oryza sativa) = assay: Test C flooded paddy test: rice; conditions: scale 0 to 100 (0 no effect, 100 complete control)
Description: (§1) Plant species in the flooded paddy test consisted of rice (Oryza sativa), sedge, umbrella (small-flower umbrella sedge, Cyperus difformis), ducksalad (Heteranthera limosa) and barnyardgrass (Echinochloa crus-galli) grown to the 2-leaf stage for testing. At time of treatment, test pots were flooded to 3 cm above the soil surface, treated by application of test compounds directly to the paddy water, and then maintained at that water depth for the duration of the test.
(§2) Treated plants and controls were maintained in a greenhouse for 13 to 15 days, after which time all species were compared to controls and visually evaluated. Plant response ratings, summarized in Table C, are based on a scale of 0 to 100 where 0 is no effect and 100 is complete control. A dash (-) response means no test result.

[1] = system: sedge, umbrella (small-flower umbrella sedge, Cyperus difformis); assay: Test C flooded paddy test: sedge, umbrella; conditions: scale 0 to 100 (0 no effect, 100 complete control)
Description: as §1, §2

[2] = system: barnyardgrass (Echinochloa crus-galli); assay: Test A pre-/postemergence: barnyardgrass; conditions: for Barnyardgrass plant response rating: Postemergence; for Plant response rating, Barnyardgrass: Preemergence
How it was run: (§3)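 Visual 0–100 injury ratings (0 no effect, 100 complete control) taken about ten days after treatment, relative to untreated controls. Preemergence treatment was a directed soil spray; postemergence plants were 2–10 cm tall at one- to two-leaf stage. Soil: loam/sand blend.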

[3] = system: barnyardgrass (Echinochloa crus-galli); assay: Test C flooded paddy test: barnyardgrass; conditions: scale 0 to 100 (0 no effect, 100 complete control)
Description: as §1, §2

[4] = system: foxtail, giant (giant foxtail, Setaria faberii); assay: Test A pre-/postemergence: foxtail, giant; conditions: for Foxtail, Giant plant response rating: Postemergence; for Plant response rating, Foxtail, Giant: Preemergence
How it was run: as §3

[5] = system: pigweed (Amaranthus retroflexus); assay: Test A pre-/postemergence: pigweed; conditions: for Pigweed plant response rating: Postemergence; for Plant response rating, Pigweed: Preemergence
How it was run: as §3

[6] = system: wheat (Triticum aestivum); assay: Test A pre-/postemergence: wheat; conditions: for Wheat plant response rating: Postemergence; for Plant response rating, Wheat: Preemergence
How it was run: as §3

[7] = system: ducksalad (Heteranthera limosa); assay: Test C flooded paddy test: ducksalad; conditions: scale 0 to 100 (0 no effect, 100 complete control)
Description: as §1, §2

corn (Zea mays) = assay: Test A pre-/postemergence: corn; conditions: for Corn plant response rating: Postemergence; for Plant response rating, Corn: Preemergence
How it was run: as §3

[8] = system: velvetleaf (Abutilon theophrasti); assay: Test A pre-/postemergence: velvetleaf; conditions: for Velvetleaf plant response rating: Postemergence; for Plant response rating, Velvetleaf: Preemergence
How it was run: as §3

[9] = system: crabgrass, large (large crabgrass, Digitaria sanguinalis); assay: Test A pre-/postemergence: crabgrass, large; conditions: for Crabgrass, Large plant response rating: Postemergence; for Plant response rating, Crabgrass, Large: Preemergence
How it was run: as §3

[10] = system: morningglory (Ipomoea spp.); assay: Test A pre-/postemergence: morningglory; conditions: for Morningglory plant response rating: Postemergence; for Plant response rating, Morningglory: Preemergence
How it was run: as §3

[11] = Flood (flooded paddy test), 62 g ai/ha, visual rating after 13 to 15 days
[12] = Flood (flooded paddy test), 250 g ai/ha, visual rating after 13 to 15 days
[13] = 125 g ai/ha, 0 to 100 scale, 0 is no effect, 100 is complete control
[14] = 500 g ai/ha, visual rating on 0 to 100 scale (0 no effect, 100 complete control), approximately ten days
[15] = 125 g ai/ha, 0 to 100 scale (0 no effect, 100 complete control)
[16] = 500 g ai/ha, 0 to 100 scale, 0 is no effect, 100 is complete control
[17] = Flood (flooded paddy test), 125 g ai/ha, visual rating after 13 to 15 days

For `Cc1nn(-c2ccc(C(F)(F)F)cc2)nc1Cn1ccc(C(F)(F)C(F)(F)F)n1` [Compound 12], the “Plant response rating, Rice” value (rice (Oryza sativa); [11]) was 0, the “Plant response rating, Rice” value (rice (Oryza sativa); [12]) was 25 and the “Plant response rating, Sedge, Umbrella” value [1, 11] was 50. The “Plant response rating, Sedge, Umbrella” value [1, 12] was 80, the “Barnyardgrass plant response rating” value [2, 13] was 30 and the “Barnyardgrass plant response rating” value [2, 14] was 80. For the same compound, the “Plant response rating, Barnyardgrass” value [2, 15] was 30, the “Plant response rating, Barnyardgrass” value [2, 16] was 80 and the “Plant response rating, Barnyardgrass” value [3, 11] was 40. The “Plant response rating, Barnyardgrass” value [3, 12] was 60, the “Foxtail, Giant plant response rating” value [4, 13] was 50 and the “Foxtail, Giant plant response rating” value [4, 14] was 70. For the same compound, the “Plant response rating, Foxtail, Giant” value [4, 15] was 80, the “Plant response rating, Foxtail, Giant” value [4, 16] was 100 and the “Pigweed plant response rating” value [5, 13] was 100. For the same compound, the “Pigweed plant response rating” value [5, 14] was 100, the “Plant response rating, Pigweed” value [5, 15] was 80 and the “Plant response rating, Pigweed” value [5, 16] was 100. For the same compound, the “Wheat plant response rating” value [6, 13] was 10, the “Wheat plant response rating” value [6, 14] was 30 and the “Plant response rating, Wheat” value [6, 15] was 0. The “Plant response rating, Wheat” value [6, 16] was 0, the “Plant response rating, Ducksalad” value [7, 11] was 60 and the “Plant response rating, Ducksalad” value [7, 12] was 70. For the same compound, the “Corn plant response rating” value (corn (Zea mays); [13]) was 20, the “Corn plant response rating” value (corn (Zea mays); [14]) was 30 and the “Plant response rating, Corn” value (corn (Zea mays); [15]) was 0. The “Plant response rating, Corn” value (corn (Zea mays); [16]) was 10, the “Velvetleaf plant response rating” value [8, 13] was 70 and the “Velvetleaf plant response rating” value [8, 14] was 100. For the same compound, the “Plant response rating, Velvetleaf” value [8, 15] was 60, the “Plant response rating, Velvetleaf” value [8, 16] was 70 and the “Crabgrass, Large plant response rating” value [9, 13] was 50. For the same compound, the “Crabgrass, Large plant response rating” value [9, 14] was 90, the “Plant response rating, Crabgrass, Large” value [9, 15] was 90 and the “Plant response rating, Crabgrass, Large” value [9, 16] was 100. The “Morningglory plant response rating” value [10, 13] was 70, the “Morningglory plant response rating” value [10, 14] was 100 and the “Plant response rating, Morningglory” value [10, 15] was 10. For the same compound, the “Plant response rating, Morningglory” value [10, 16] was 40.

`Cc1nn(-c2ccc(C(F)(F)F)cn2)nc1Cn1nc(C(F)(F)F)cc1C` [Compound 21] was tested, and the “Plant response rating, Rice” value (rice (Oryza sativa); [11]) was 0, the “Plant response rating, Rice” value (rice (Oryza sativa); [17]) was 0 and the “Plant response rating, Rice” value (rice (Oryza sativa); [12]) was 0. The “Plant response rating, Rice” value (rice (Oryza sativa); Flood, 31 g ai/ha) was 0, the “Plant response rating, Sedge, Umbrella” value [1, 11] was 0 and the “Plant response rating, Sedge, Umbrella” value [1, 17] was 0. For the same compound, the “Plant response rating, Sedge, Umbrella” value [1, 12] was 0, the “Plant response rating, Sedge, Umbrella” value ([1]; Flood, 31 g ai/ha) was 0 and the “Barnyardgrass plant response rating” value [2, 13] was 0. For the same compound, the “Barnyardgrass plant response rating” value [2, 14] was 10, the “Plant response rating, Barnyardgrass” value [2, 15] was 0 and the “Plant response rating, Barnyardgrass” value [2, 16] was 10. For the same compound, the “Plant response rating, Barnyardgrass” value [3, 11] was 0, the “Plant response rating, Barnyardgrass” value [3, 17] was 0 and the “Plant response rating, Barnyardgrass” value [3, 12] was 0. For the same compound, the “Plant response rating, Barnyardgrass” value ([3]; Flood, 31 g ai/ha) was 0, the “Foxtail, Giant plant response rating” value [4, 13] was 0 and the “Foxtail, Giant plant response rating” value [4, 14] was 10. The “Plant response rating, Foxtail, Giant” value [4, 15] was 0, the “Plant response rating, Foxtail, Giant” value [4, 16] was 30 and the “Pigweed plant response rating” value [5, 13] was 60. For the same compound, the “Pigweed plant response rating” value [5, 14] was 80, the “Plant response rating, Pigweed” value [5, 15] was 0 and the “Plant response rating, Pigweed” value [5, 16] was 50. The “Wheat plant response rating” value [6, 13] was 0, the “Wheat plant response rating” value [6, 14] was 0 and the “Plant response rating, Wheat” value [6, 15] was 0. The “Plant response rating, Wheat” value [6, 16] was 0, the “Plant response rating, Ducksalad” value [7, 11] was 0 and the “Plant response rating, Ducksalad” value [7, 17] was 0. The “Plant response rating, Ducksalad” value [7, 12] was 0, the “Plant response rating, Ducksalad” value ([7]; Flood, 31 g ai/ha) was 0 and the “Corn plant response rating” value (corn (Zea mays); [13]) was 0. The “Corn plant response rating” value (corn (Zea mays); [14]) was 10, the “Plant response rating, Corn” value (corn (Zea mays); [15]) was 0 and the “Plant response rating, Corn” value (corn (Zea mays); [16]) was 0. The “Velvetleaf plant response rating” value [8, 13] was 10, the “Velvetleaf plant response rating” value [8, 14] was 20 and the “Plant response rating, Velvetleaf” value [8, 15] was 0. For the same compound, the “Plant response rating, Velvetleaf” value [8, 16] was 0, the “Crabgrass, Large plant response rating” value [9, 13] was 20 and the “Crabgrass, Large plant response rating” value [9, 14] was 40. For the same compound, the “Plant response rating, Crabgrass, Large” value [9, 15] was 0, the “Plant response rating, Crabgrass, Large” value [9, 16] was 60 and the “Morningglory plant response rating” value [10, 13] was 20. For the same compound, the “Morningglory plant response rating” value [10, 14] was 40, the “Plant response rating, Morningglory” value [10, 15] was 0 and the “Plant response rating, Morningglory” value [10, 16] was 0.
